In patent US11931330B2, “Composition for promoting skeletal muscle activity via induction of mitochondrial biogenesis comprising of azelaic acid as an active ingredient” (Korea University Research and Business Foundation, priority 2018, dated 2024):

Columns and labels:
Hepa1c1c-7 cells = assay: MTT assay, cytotoxicity of azelaic acid; type: cell-based; settings: 0 to 500 μM, 24 hours, compared to the control group
Protocol: To evaluate cytotoxicity of an azelaic acid, an MTT assay was performed. The MTT assay is a test method utilizing the ability of mitochondria to reduce MTT tetrazolium, which is a yellow water-soluble substrate, to non-water-soluble MTT formazan showing a blue-violet color by a dehydrogenase. The MTT reagent was prepared by being diluted in phosphate buffered saline (PBS) at a concentration of 2 to 5 mg/mL. Hepalcic-7 cells used in this experiment were purchased from the Korean Cell Line Bank, and cultured in a minimum essential medium Eagle alpha modification medium (MEM-alpha, Hyclone) supplemented with 10% FBS and 1% PEST. For this experiment, the Hepa1c1c-7 cells (4×10^4 cell/mL) were seeded into a 96-well plate and incubated at 37° C. under 5% CO2 for 24 hours, and then incubated for 24 hours by adding an azelaic acid in a concentration range of 0 to 500 μM. Afterward, each sample was treated with 100 μL of the MTT reagent (4 mg/mL), incubated at 37° C. under 5% CO2 for 4 hours and treated with 100 μL of dimethyl sulfoxide (DMSO), followed by measuring absorbance at 540 nm. Since the absorbance level is proportional to a cell count, a cell death effect caused by toxicity may be quantified.

PGC-1α = PGC-1α gene and protein expression in differentiated C2C12 cells (qPCR, immunoblotting); type: cell-based, murine; settings: 50 μM, 24 hours, compared to DMSO control
Protocol: (§1) Murine skeletal muscle cells, C2C12 cells, were purchased from the Korean Cell Line Bank. The cells were cultured using a Dulbecco's modified Eagle's medium (DMEM) supplemented with 20% fetal bovine serum (FBS; HyClone, USA) and 1% antibiotics (penicillin/streptomycin). When the cells reached 50% confluency (the degree of proliferation) under 5% CO2 (v/v) at 37° C., the cells were subcultured and maintained.
(§2) To differentiate the cells, the medium was replaced with DMEM containing 2% horse serum (HyClone), and after 7 days of differentiation, the cells were used in the experiment.
C2C12 cells differentiated for 7 days as described in Example 2-1 were treated with 12.5, 25 or 50 μM of an azelaic acid. […]
qPCR was performed to synthesize cDNA using RNA extracted from cells grown in a culture medium and then treated with 300 μL of the RNAiso plus reagent per well. […] A gene expression level was analyzed using the iQ5 Cycler System (Bio-Rad, USA).
Protein extraction was performed using an RIPA buffer (10 mM Tris-HCl, pH 7.5, 1% NP-40, 0.1% sodium deoxycholate, 0.1% SDS, 150 mM NaCl, and 1 mM EDTA), a Halt™ protease and a phosphatase inhibitor reagent (Thermo, USA). […] The resulting immunoblotting image was analyzed using the ChemiDoc™ touch imaging system and Image Lab 5.2 software (Bio-Rad, PA, USA).

C2C12 cells = assay: mtDNA level and mitochondrial density (MitoTracker) in differentiated C2C12 cells; type: cell-based, murine
Protocol: as §1, §2
C2C12 cells differentiated for 7 days as described in Example 2-1 were treated with 12.5, 25 or 50 μM of an azelaic acid. After 24 hours, RNA and proteins were extracted according to the following method, and used in the experiment. For a control, instead of an azelaic acid, the same amount of DMSO was treated.
After treatment with azelaic acid, the change in mitochondrial density was detected using MitoTracker. C2C12 cells were treated with an azelaic acid for 24 hours, and then washed with PBS. Subsequently, a medium containing […] of MitoTracker, i.e., a green probe, was added thereto, and the cells were cultured for 30 minutes. The mitochondrial density was measured by quantifying wavelengths of a part binding to the tracker, which absorbs a wavelength at 490 nm and emits a wavelength at 516 nm, using SpectraMax. Image analysis was performed using a confocal microscope and Zeiss LSM700 version 3.2 software (Carl Zeiss, Germany).
The differentiated C2C12 cells were treated with azelaic acid, treated with 300 μL of a lysis buffer (20 mM EDTA, 100 mM Tris, 200 mM NaCl, 0.2% Triton X-100, 100 μg/mL) per well, and cultured at 37° C. for 90 minutes, and the extracted supernatant was treated with the same amount of isopropanol and 25 μL of a 4M NaCl solution. After storage at −20° C. overnight, distilled water (D.W.) was added to a pellet obtained by centrifugation (14,000 rpm, RT, 20 min), thereby extracting mtDNA. […] A gene expression level was analyzed using the iQ5 Cycler System (Bio-Rad, USA).

Olfr544 [1] = assay: PGC-1α expression in Scr siRNA normal and Olfr544 knockdown C2C12 cells; type: cell-based, murine; settings: 50 μM
Protocol: (§3) The differentiated skeletal muscle cells, C2C12 cells, were transfected with 200 pmol of scramble (control) or Olfr544 siRNA duplex (Santa Cruz, USA) using the Lipofectamine 2000 reagent (Invitrogen, USA) for 6 hours. Subsequently, another transfection was performed for 10 to 12 hours. The transfected cells were used for RNA or protein extraction.
qPCR was performed to synthesize cDNA using RNA extracted from cells grown in a culture medium and then treated with 300 μL of the RNAiso plus reagent per well. Subsequently, the synthesized cDNA was subjected to qPCR using the Thunderbird TMSYBR® qPCR Mix reagent (Takara Bio Inc., Japan). A gene expression level was analyzed using the iQ5 Cycler System (Bio-Rad, USA).
(§4) Protein extraction was performed using an RIPA buffer (10 mM Tris-HCl, pH 7.5, 1% NP-40, 0.1% sodium deoxycholate, 0.1% SDS, 150 mM NaCl, and 1 mM EDTA), a Halt™ protease and a phosphatase inhibitor reagent (Thermo, USA). As primary antibodies, anti-α-tubulin (1:1000) and anti-PGC-1α (1:500; Santa Cruz Biotechnology, Santa Cruz, USA) were used. The resulting immunoblotting image was analyzed using the ChemiDoc™ touch imaging system and Image Lab 5.2 software (Bio-Rad, PA, USA).

Olfr544 [2] = assay: mtDNA and mitochondrial density in Scr siRNA normal and Olfr544 knockdown C2C12 cells; type: cell-based, murine
Protocol: as §3
(§5) The differentiated C2C12 cells were treated with azelaic acid, treated with 300 μL of a lysis buffer (20 mM EDTA, 100 mM Tris, 200 mM NaCl, 0.2% Triton X-100, 100 μg/mL) per well, and cultured at 37° C. for 90 minutes, and the extracted supernatant was treated with the same amount of isopropanol and 25 μL of a 4M NaCl solution. After storage at −20° C. overnight, distilled water (D.W.) was added to a pellet obtained by centrifugation (14,000 rpm, RT, 20 min), thereby extracting mtDNA. Afterward, 2 μl of DNA, 10 μl of the SYBR green PCR master mix, 0.5 μL of each of a forward primer and a reverse primer having a concentration of 10 pmol, and 6.6 μL of sterile distilled water were mixed, and qPCR was performed using the Thunderbird TMSYBR® qPCR Mix reagent (Takara Bio Inc., Japan). A gene expression level was analyzed using the iQ5 Cycler System (Bio-Rad, USA).
The change in mitochondrial DNA content and abundance were determined using MitoTracker. Olfr544 siRNA-transfected cells were treated with an azelaic acid at a concentration of 50 μM for 24 hours, and then washed with PBS. Afterward, a medium containing 200 nM of the MitoTracker green probe was added to the cells, and the cells were cultured for 30 minutes. The mitochondrial density was measured by quantifying wavelengths of a part binding to the tracker, which absorbs a wavelength at 490 nm and emits a wavelength at 516 nm, using SpectraMax. The images were obtained by the Zeiss LSM700 confocal microscope, and then analyzed using the Zeiss LSM700 version 3.2 software (Carl Zeiss, Germany)

Olfr544 [3] = assay: Immunoblotting of pCREB, pERK1/2 and LC3II/LC3I in normal and Olfr544 knockdown C2C12 cells; type: cell-based, murine
Protocol: The differentiated skeletal muscle cells, C2C12 cells, were transfected with 200 pmol of scramble (control) or Olfr544 siRNA (Santa Cruz, USA) using the Lipofectamine 2000 reagent (Invitrogen, USA) for 6 hours. Subsequently, one more transfection was performed for 10 to 12 hours. After 24 hours, the transfected cells were treated with an azelaic acid and used for protein extraction.
as §4, with “antibodies, anti-CREB (1:250), anti-p-CREB (Ser133; 1:500), anti-β-actin (1:1000),” for “antibodies,”, “(1:1000), anti-ERK1/2 (1:500), anti-p-ERK1/2 (Thr53,54, 1:500),” for “(1:1000)”, “used. In addition, anti-LC3B (1:500) was purchased from Novus Biologicals (Novus Biologicals, USA).” for “used.”

[4] = test system: muscle tissue of HFD-induced obese mice; assay: Oral administration for 6 weeks to HFD-induced obese normal and Olfr544 knockout mice, muscle tissue qPCR and mtDNA; type: in vivo, mouse; settings: oral 100 mg/kg
Protocol: (§6) 8-week-old ICR male […] and C57BL/6J were purchased from Samtako (Gyeonggi-do, Seoul), and Olfr544 knockout mice from which exon 2 (161-428 bp) of an Olfr544 gene was removed using a CRISPR-Cas9 system were purchased from Macrogen (Seoul, Korea). All animal experiments were carried out in accordance with the experimental method (Protocol No. KUIACUC-2016-97) approved by the Animal Experiment Ethics Committee at Korea University. In the breeding environment, a 12-hour light cycle, a room temperature of 25 to 31° C., and relative humidity of […] were maintained. The mice were freely fed a 60% high-fat diet, and randomly divided into 4 groups (n=7, two groups for normal mice, and the other two groups for knockout (KO) mice). For exact Olfr544 activation, the mice were fasted overnight, and then intraperitoneally injected with an azelaic acid (100 mg/kg of body weight). For a control, the same amount of PBS was intraperitoneally injected. In an experiment for long-term administration of an azelaic acid, the azelaic acid was orally administered at a dose of 100 mg/kg of body weight. During the last week of the experimental period (6 weeks), the mice fasted for 16 hours were anesthetized and sacrificed. The collected muscle tissue was put into a freezing tube, immediately put into liquid nitrogen, and then stored at −80° C.
cDNA was synthesized using RNA extracted by adding the RNAiso plus reagent to murine muscle cells. Subsequently, the synthesized cDNA was subjected to qPCR using the Thunderbird TMSYBR® qPCR Mix reagent (Takara Bio Inc., Japan). A gene expression level was analyzed using the iQ5 Cycler System (Bio-Rad, USA).
as §5, with “Murine muscle” for “The differentiated C2C12”, “with” for “with azelaic acid, treated with 300 μL of”, “μg/mL),” for “μg/mL) per well,”

muscle tissue of mice = assay: Intraperitoneal injection to normal and Olfr544 knockout mice, muscle tissue protein expression; type: in vivo, mouse; settings: intraperitoneal 100 mg/kg; for pERK/ERK protein expression increase in muscle: compared with control
From the text: FIG. 7A to FIG. 7E are diagrams showing mechanisms of promoting mitochondrial biogenesis according to Olfr544 activity of an azelaic acid in mice (FIG. 7A: the images showing pCREB, CREB, PGC-1α, ERK1/2, pERK1/2 and LC3 proteins expression, FIG. 7B: analysis for pCREB and CREB protein expression levels, FIG. 7C: analysis for PGC-1α protein expression per an azelaic acid treatment time, FIG. 7D: analysis for pERK and ERK protein expression levels, and FIG. 7E: analysis for LC3 protein expression per an azelaic acid treatment time in muscle tissue extracted 30 and 120 minutes after an azelaic acid is intraperitoneally injected into normal mice and Olfr544 KO mice).
as §6

[5] = Scr siRNA-transfected normal C2C12 cells
[6] = Olfr544 knockdown C2C12 cells, 50 μM, 24 hours
[7] = normal mice, 30 minutes after injection
[8] = normal mice, 120 minutes after injection

## O=C(O)CCCCCCCC(=O)O [azelaic acid, nonanedioic acid]
Hepa1c1c-7 cells
  toxicity (cell viability, MTT assay): toxicity was not observed at any concentration
PGC-1α
  PGC-1α gene expression: increased
  PGC-1α protein expression: increased
C2C12 cells; 50 μM, 24 hours
  mitochondrial density (MitoTracker quantification): significantly increased
  mtDNA level, increase over control: about 2.5 fold
C2C12 cells; treated group compared to control group
  mitochondrial density, MitoTracker images under confocal fluorescence microscopy: substantial increases
Olfr544 [1]; Olfr544 knockdown C2C12 cells
  PGC-1α mRNA level: this effect is not shown
  PGC-1α protein level: this effect is not shown
Olfr544 [1]; [5]
  PGC-1α mRNA level: significantly increases
  PGC-1α protein level: significantly increases
Olfr544 [2]; C2C12 normal cells, azelaic acid (50 µM)
  mitochondrial density (quantification): enrichment of mitochondria
Olfr544 [2]; [6]
  mitochondrial density change: no changes
  mtDNA change: no changes
Olfr544 [2]; azelaic acid-treated normal C2C12 cells, 50 μM, 24 hours
  mtDNA increase: about 1.6 fold
Olfr544 [3]; Olfr544 knockdown C2C12 cells
  LC3II/LC3I protein expression: this effect disappeared
  pCREB expression change: no change
Olfr544 [3]; normal (Scr siRNA) C2C12 cells
  pCREB expression increase: about 2 fold
Olfr544 [3]; normal C2C12 cells, compared to the control group
  LC3II/LC3I protein expression increase: about 3 fold
Olfr544 [3]; skeletal muscle cells (C2C12)
  phosphorylated ERK1/2 protein expression increase: 1.5 fold
[4]; Olfr544 knockout HFD mice
  PGC-1α mRNA expression in muscle: no changes
  Tfa gene expression in muscle: no change
  mt DNAs in muscle: no change
[4]; normal HFD mice
  Tfa gene expression increase in muscle: about 3.3 fold
[4]; normal HFD mice, compared to control group
  PGC-1α mRNA expression increase in muscle: about 1.9 fold
[4]; normal HFD mice, compared to non-administered mice
  mt DNAs in muscle: increased
Muscle tissue of mice; Olfr544 knockout mice
  LC3II/LC3I protein expression in muscle: no change
  pERK/ERK protein expression in muscle: no change
Muscle tissue of mice; [7]
  LC3II/LC3I protein expression increase in muscle: 1.5 fold
  pERK/ERK protein expression increase in muscle: 2.5 fold
Muscle tissue of mice; [8]
  LC3II/LC3I protein expression in muscle: not changed
  pERK/ERK protein expression increase in muscle: 2.8 fold
